# Target: PcrV (Pseudomonas aeruginosa, UniProt G3XD49)
# Assay: SPR library screening at 100 µM, PcrV versus deactivated control protein CAII
# Format: binding
# Details: Figure 2
# Description: The SPR screening was performed using the ProteOn^TM XPR36 Protein Interaction Array System (Bio-Rad Laboratories Inc., Hercules, CA, USA) with ProteOn GLH sensor chip (Bio-Rad Laboratories Inc., Hercules, CA, USA), and the results were analyzed with the ProteOn Manager software^TM (Bio-Rad Laboratories Inc., Hercules, CA, USA), Excel 2016 (Microsoft Office), and GraphPad Prism 7.04. All SPR experiments were performed at 25 °C. The multichannel module of the ProteOn system was in the vertical position during protein immobilization. The proteins were attached to the surface of a GLH sensor chip via amine coupling chemistry. A buffer scouting was performed to elucidate the optimal binding conditions of PcrV to the GLH sensor chip. First, channels 1–4 on the chip surface were activated using a 1:1 mixture of 40 mM 1-ethyl-3-(3-dimethylaminopropyl)carbodiimide hydrochloride (EDAC) (Bio-Rad Laboratories Inc., Hercules, CA, USA) and 10 mM N-hydroxysulfosuccinimide (sulfo-NHS, Bio-Rad Laboratories Inc., Hercules, CA, USA) for 300 s at 30 µL/min. Next, the proteins PcrV (33,398.6 Da, 6.37 mg/mL) was diluted in 10 mM NaOAc (pH 4, 4.5, and 5) to 0.05 mg/mL. PcrV was immobilized in channel 1–3 for 540 s at 30 µL/min. […] The final amount of immobilized protein was measured in resonance units (RU) relative to the signal of the baseline prior activation. […]
# Sequence of PcrV (G3XD49 entry or part of it): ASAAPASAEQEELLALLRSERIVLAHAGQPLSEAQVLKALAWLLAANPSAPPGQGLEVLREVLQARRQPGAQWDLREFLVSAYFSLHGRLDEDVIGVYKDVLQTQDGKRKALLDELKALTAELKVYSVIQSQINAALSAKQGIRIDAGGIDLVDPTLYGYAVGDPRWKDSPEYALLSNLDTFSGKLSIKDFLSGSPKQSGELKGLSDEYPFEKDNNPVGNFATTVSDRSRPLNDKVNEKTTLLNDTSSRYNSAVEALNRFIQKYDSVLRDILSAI
structure (smiles),measurement,value
Cc1c(Br)ccc(OCCCC(=O)O)c1C [Compound H1],Selectivity of binding to PcrV over CAII in SPR screening,selective PcrV binders
